Molecular target: T1, NaV1.3 (Homo sapiens, UniProt Q9NY46)
Assay: Activity against NaV 1.3 channel (optical membrane potential assay, electrical stimulation)
Type: cell-based
Parameters: expressed in transfected cells; host or cells: HEK293
Conditions: not given
Protocol: Compounds of the invention are useful as antagonists of voltage-gated sodium ion channels. Antagonist properties of test compounds were assessed as follows. Cells expressing the NaV of interest were placed into microtiter plates. After an incubation period, the cells were stained with fluorescent dyes sensitive to the transmembrane potential. The test compounds were added to the microtiter plate. The cells were stimulated with either a chemical or electrical means to evoke a NaV dependent membrane potential change from unblocked channels, which was detected and measured with trans-membrane potential-sensitive dyes. Antagonists were detected as a decreased membrane potential response to the stimulus. The optical membrane potential assay utilized voltage-sensitive FRET sensors described by Gonzalez and Tsien (See, Gonzalez, J. E. and R. Y. Tsien (1995) “Voltage sensing by fluorescence resonance energy transfer in single cells” Biophys J 69(4): 1272-80, and Gonzalez, J. E. and R. Y. Tsien (1997) “Improved indicators of cell membrane potential that use fluorescence resonance energy transfer” Chem Biol 4(4): 269-77) in combination with instrumentation for measuring fluorescence changes such as the Voltage/Ion Probe Reader (VIPR®) (See, Gonzalez, J. E., K. Oades, et al. (1999) “Cell-based assays and instrumentation for screening ion-channel targets” Drug Discov Today 4(9): 431-439).
The following is an example of how NaV1.3 inhibition activity is measured using the optical membrane potential method#2. Other subtypes are performed in an analogous mode in a cell line expressing the NaV of interest.
HEK293 cells stably expressing NaV1.3 are plated into 96-well microtiter plates. After an appropriate incubation period, the cells are stained with the voltage sensitive dyes CC2-DMPE/DiSBAC2(3) as follows.
2×CC2-DMPE=20 μM CC2-DMPE: 10 mM CC2-DMPE is vortexed with an equivalent volume of 10% pluronic, followed by vortexing in required amount of HBSS containing 10 mM HEPES. Each cell plate will require 5 mL of 2×CC2-DMPE. 50 μL of 2×CC2-DMPE is to wells containing washed cells, resulting in a 10 μM final staining concentration. The cells are stained for 30 minutes in the dark at RT.
2×DISBAC2(3) with ABSC1=6 μM DISBAC2(3) and 1 mM ABSC1: The required amount of 10 mM DISBAC2(3) is added to a 50 ml conical tube and mixed with 1 μL 10% pluronic for each mL of solution to be made and vortexed together. Then HBSS/HEPES is added to make up 2× solution. Finally, the ABSC1 is added.
The 2×DiSBAC2(3) solution can be used to solvate compound plates. Note that compound plates are made at 2× drug concentration. Wash stained plate again, leaving residual volume of 50 μL. Add 50 uL/well of the 2×DiSBAC2(3) w/ABSC1. Stain for 30 minutes in the dark at RT.
The electrical stimulation instrument and methods of use are described in ION Channel Assay Methods PCT/US01/21652, herein incorporated by reference. The instrument comprises a microtiter plate handler, an optical system for exciting the coumarin dye while simultaneously recording the coumarin and oxonol emissions, a waveform generator, a current- or voltage-controlled amplifier, and a device for inserting electrodes in well. Under integrated computer control, this instrument passes user-programmed electrical stimulus protocols to cells within the wells of the microtiter plate.
• 1. Insert or use electrodes into each well to be assayed. • 2. Use the current-controlled amplifier to deliver stimulation wave pulses for 3 s. Two seconds of pre-stimulus recording are performed to obtain the un-stimulated intensities. Five seconds of post-stimulation recording are performed to examine the relaxation to the resting state.
Data are analyzed and reported as normalized ratios of background-subtracted emission intensities measured in the 460 nm and 580 nm channels. Background intensities are then subtracted from each assay channel. […]

SMILES	IC50
O=C(NC1Cc2ccc(S(=O)(=O)Nc3nccs3)cc2C1)Oc1cccc(C(F)(F)F)c1 (stereo not shown) [Compound 1]	< 2 µM
O=C(NC1Cc2ccc(S(=O)(=O)Nc3nccs3)cc2C1)Oc1ccc(Cl)cc1 (stereo not shown) [Compound 11]	< 2 µM

Same assay, conditions: NaV 1.3 channel; read-out: IC50

SMILES	IC50
O=C(COc1ccc(Cl)cc1)NC1Cc2ccc(S(=O)(=O)Nc3nccs3)cc2C1 (stereo not shown) [Compound 2]	< 2 µM
O=C(NC1Cc2ccc(S(=O)(=O)Nc3nccs3)cc2C1)c1cc(F)ccc1F (stereo not shown) [Compound 3]	> 5 µM
O=C(CCn1ccc2cc(Cl)ccc21)NC1Cc2ccc(S(=O)(=O)Nc3nccs3)cc2C1 (stereo not shown) [Compound 4, 3-(5-Chloro-indol-1-yl)-N-[5-(thiazol-2-ylsulfamoyl)-indan-2-yl]-propionamide]	< 2 µM
O=C(COc1ccc(F)c(Cl)c1)NC1Cc2ccc(S(=O)(=O)Nc3nccs3)cc2C1 (stereo not shown) [Compound 5]	< 2 µM
O=C(NC1Cc2ccc(S(=O)(=O)Nc3nccs3)cc2C1)c1ccc(F)cc1 (stereo not shown) [Compound 6, 4-Fluoro-N-[5-(thiazol-2-ylsulfamoyl)-indan-2-yl]-benzamide]	> 5 µM
O=C(NC1Cc2ccc(S(=O)(=O)Nc3nccs3)cc2C1)c1c(F)cc(F)cc1F (stereo not shown) [Compound 7]	> 5 µM
O=C(NC1Cc2ccc(S(=O)(=O)Nc3nccs3)cc2C1)c1ccc(Cl)c(Cl)c1 (stereo not shown) [Compound 8]	2 to 5 µM
O=C(COc1ccccc1)NC1Cc2ccc(S(=O)(=O)Nc3nccs3)cc2C1 (stereo not shown) [Compound 9]	> 5 µM
O=C(NC1Cc2ccc(S(=O)(=O)Nc3nccs3)cc2C1)c1ccc(C(F)(F)F)cc1 (stereo not shown) [Compound 10]	> 5 µM
CC(C)(C)c1ccc(OCC(=O)NC2Cc3ccc(S(=O)(=O)Nc4nccs4)cc3C2)cc1 (stereo not shown) [Compound 12]	< 2 µM
O=C(COc1ccc(F)cc1)NC1Cc2ccc(S(=O)(=O)Nc3nccs3)cc2C1 (stereo not shown) [Compound 13]	2 to 5 µM
O=C(NC1Cc2ccc(S(=O)(=O)Nc3nccs3)cc2C1)c1ccccc1F (stereo not shown) [Compound 14]	> 5 µM
O=C(CCOc1ccccc1)NC1Cc2ccc(S(=O)(=O)Nc3nccs3)cc2C1 (stereo not shown) [Compound 15]	> 5 µM
O=C(COc1cccc(Cl)c1)NC1Cc2ccc(S(=O)(=O)Nc3nccs3)cc2C1 (stereo not shown) [Compound 16, 2-(3-Chloro-phenoxy)-N-[5-(thiazol-2-ylsulfamoyl)-indan-2-yl]-acetamide]	< 2 µM
CC(C(=O)NC1Cc2ccc(S(=O)(=O)Nc3nccs3)cc2C1)n1ccc2ccccc21 (stereo not shown) [Compound 17, 2-Indol-1-yl-N-[5-(thiazol-2-ylsulfamoyl)-indan-2-yl]-propionamide]	2 to 5 µM

Test system: not given
Assay: not given
Conditions: in vivo; cited from earlier work

SMILES	patients in whom the drug works
NCC1(CC(=O)O)CCCCC1 [Gabapentin]	60%

Molecular target: T1, NaV1.3
Assay: not given
Conditions: read-out: TTX IC50; cited from earlier work
Target sequence in this assay (Q9NY46 whole entry, looked up): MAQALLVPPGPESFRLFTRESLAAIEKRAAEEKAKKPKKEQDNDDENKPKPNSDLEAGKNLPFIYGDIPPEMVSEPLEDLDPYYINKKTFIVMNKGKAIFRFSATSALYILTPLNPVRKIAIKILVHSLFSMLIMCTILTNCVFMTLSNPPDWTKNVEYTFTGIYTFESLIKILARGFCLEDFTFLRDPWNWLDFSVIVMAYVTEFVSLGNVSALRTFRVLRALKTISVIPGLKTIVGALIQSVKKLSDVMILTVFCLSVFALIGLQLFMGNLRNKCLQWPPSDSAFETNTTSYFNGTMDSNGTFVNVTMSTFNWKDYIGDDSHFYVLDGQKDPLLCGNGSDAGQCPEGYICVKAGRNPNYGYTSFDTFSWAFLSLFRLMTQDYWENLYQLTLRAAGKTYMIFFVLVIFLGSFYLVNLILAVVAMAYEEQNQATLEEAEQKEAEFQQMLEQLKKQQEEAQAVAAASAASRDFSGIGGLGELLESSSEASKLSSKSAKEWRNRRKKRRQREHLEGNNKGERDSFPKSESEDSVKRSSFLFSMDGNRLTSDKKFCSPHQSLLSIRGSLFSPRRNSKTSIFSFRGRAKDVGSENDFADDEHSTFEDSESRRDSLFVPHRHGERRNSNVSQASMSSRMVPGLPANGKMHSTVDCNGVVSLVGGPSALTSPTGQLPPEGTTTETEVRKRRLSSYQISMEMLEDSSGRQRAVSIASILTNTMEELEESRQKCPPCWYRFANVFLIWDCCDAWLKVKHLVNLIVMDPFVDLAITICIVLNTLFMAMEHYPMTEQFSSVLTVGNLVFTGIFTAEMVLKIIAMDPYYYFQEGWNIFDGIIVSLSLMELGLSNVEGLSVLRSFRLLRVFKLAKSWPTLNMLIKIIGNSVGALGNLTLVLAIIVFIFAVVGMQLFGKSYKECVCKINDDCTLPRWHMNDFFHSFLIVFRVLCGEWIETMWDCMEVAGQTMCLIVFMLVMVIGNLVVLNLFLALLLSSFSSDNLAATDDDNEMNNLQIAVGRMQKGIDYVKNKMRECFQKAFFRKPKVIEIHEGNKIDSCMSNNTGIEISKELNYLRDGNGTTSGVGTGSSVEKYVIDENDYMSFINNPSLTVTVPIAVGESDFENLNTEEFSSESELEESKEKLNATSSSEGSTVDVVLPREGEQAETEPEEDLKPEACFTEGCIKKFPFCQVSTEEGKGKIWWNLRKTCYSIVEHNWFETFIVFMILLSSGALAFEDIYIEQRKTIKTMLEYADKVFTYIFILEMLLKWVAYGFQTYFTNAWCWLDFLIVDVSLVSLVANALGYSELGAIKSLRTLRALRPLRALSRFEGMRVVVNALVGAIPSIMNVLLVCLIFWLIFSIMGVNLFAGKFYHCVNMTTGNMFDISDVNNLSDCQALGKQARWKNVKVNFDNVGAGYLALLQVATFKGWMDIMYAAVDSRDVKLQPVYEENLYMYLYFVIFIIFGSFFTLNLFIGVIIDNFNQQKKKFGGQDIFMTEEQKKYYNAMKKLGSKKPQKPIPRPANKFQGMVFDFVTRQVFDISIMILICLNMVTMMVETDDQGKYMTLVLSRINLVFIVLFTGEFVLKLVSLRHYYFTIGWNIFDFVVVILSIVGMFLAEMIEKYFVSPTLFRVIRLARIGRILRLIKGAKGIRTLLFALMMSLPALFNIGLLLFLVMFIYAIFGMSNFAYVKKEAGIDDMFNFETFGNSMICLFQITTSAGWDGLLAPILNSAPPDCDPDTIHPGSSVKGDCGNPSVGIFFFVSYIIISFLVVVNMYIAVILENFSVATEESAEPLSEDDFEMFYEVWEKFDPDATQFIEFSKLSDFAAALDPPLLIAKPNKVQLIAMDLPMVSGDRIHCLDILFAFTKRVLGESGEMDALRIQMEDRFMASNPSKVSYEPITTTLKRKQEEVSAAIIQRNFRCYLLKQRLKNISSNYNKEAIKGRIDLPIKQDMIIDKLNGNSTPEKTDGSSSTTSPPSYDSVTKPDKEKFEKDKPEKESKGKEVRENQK

SMILES	IC50
NC1=N[C@H](O)[C@H]2[C@H]3O[C@]4(O)O[C@@H]([C@@H](O)[C@@]2(N1)[C@@H]4O)[C@]3(O)CO [TTX, tetrodotoxin]	0.015 µM
